Here are results for 102 compounds from PubChem BioAssay AID1996.

The structures appear in SMILES notation. Converted amounts (≈) assume the structure as drawn.

The conditions of this series: buffer; pH 7.4; 200.0 µM.
In the case of `O=C(Nc1ccccc1Cl)c1sccc1-c1ccccc1`, the kinetic solubility is under 0.7 µg/mL.

In the case of `COc1ccc(C(=O)NCC(=O)N2CCN(C(=O)c3ccco3)CC2)cc1[N+](=O)[O-]`, the kinetic solubility was over 62.5 µg/mL. Regarding `O=C(/C=C/c1ccco1)Nc1ccc(CN2CCOCC2)cc1`, the solubility (kinetic) is over 46.9 µg/mL. As for `S=C(NCc1ccc(Cl)cc1)NCc1ccccn1`, the figure is 35.1 µg/mL (≈ 120 µM). As for `C=CCn1c(N)cc(=O)nc1SCC(=O)Nc1ccc(C)cc1`, the figure is 14.8 µg/mL (≈ 44.8 µM); as for `NC(=O)C1CCN(CC(=O)Nc2cccnc2Cl)CC1`, 44.1 µg/mL (≈ 149 µM). As for `O=C1NC2(CCCCCC2)N=C1c1ccc(Br)cc1`, the figure is 0.9 µg/mL (≈ 2.8 µM); as for `Cc1cnc(NC(=O)c2sc(Nc3ccccc3)nc2N)o1`, 6.4 µg/mL (≈ 20.3 µM); as for `CCOc1ccc(/C=C2\SC(=S)N(CCC(=O)O)C2=O)cc1`, 40.9 µg/mL (≈ 121 µM).

For the compound `S=C(NCc1cccnc1)c1ccccc1`, the solubility (kinetic) is over 34.2 µg/mL.

`O=C(NC12CC3CC(CC(C3)C1)C2)c1cccc([N+](=O)[O-])c1` had a kinetic solubility of 7.3 µg/mL (≈ 24.3 µM). Turning to `Cc1nc(C)c(C(=O)OCC(=O)NCc2ccccc2Cl)s1`, the kinetic solubility was 26.4 µg/mL (≈ 77.9 µM). As for `O=C(COC(=O)c1c(F)cccc1Cl)NC1CCCC1`, the figure is over 45 µg/mL. For `COc1ccc(-c2ccc(C(=O)O)c(=O)[nH]2)cc1`, the kinetic solubility was over 36.8 µg/mL. To `Cn1cc(CCCC(=O)NCc2ccccc2)c2ccccc21` belongs 29.2 µg/mL (≈ 95.3 µM); to `O=C(CSc1ccc([N+](=O)[O-])cn1)Nc1nccs1`, 1.9 µg/mL (≈ 6.41 µM); to `S=C(NCCCc1ccccc1)Nc1ccc(Br)cc1`, 4.5 µg/mL (≈ 12.9 µM).

`CSc1ncccc1C(=O)Nc1cccc(C)n1` registered a solubility (kinetic) of over 38.9 µg/mL.

`O=[N+]([O-])c1ccc2c(c1)[nH]c(=S)n2-c1ccccc1` gave a solubility (kinetic) of 2 µg/mL (≈ 7.37 µM). As for `O=C(CCNS(=O)(=O)c1ccc(Cl)cc1)N1CCCC1`, the solubility (kinetic) is over 47.5 µg/mL.

For the compound `CC(=O)c1cccc(NC(=O)C(C)OC(=O)CCc2nc3ccccc3c(=O)[nH]2)c1` (configuration not stated), the kinetic solubility is over 61.1 µg/mL.

`CCOc1ccccc1NC(=O)COc1ccc2ccc(=O)oc2c1` registered a kinetic solubility of 0.9 µg/mL (≈ 2.65 µM).

`Cc1ccccc1NC(=O)CCCN1C(=O)C2CC=CCC2C1=O` (configuration not stated) displayed a kinetic solubility of over 49 µg/mL. Compound `CCCCNC(=S)Nc1ccccc1Cc1ccccc1` had a solubility (kinetic) of 32.5 µg/mL (≈ 109 µM).

The compound `Cc1noc(C)c1C(=O)Nc1nc(-c2ccc(F)c(F)c2)cs1` yielded a kinetic solubility of 4.8 µg/mL (≈ 14.3 µM). Compared with the last compound, the solubility kinetic is about 6.8-fold lower. As for `Cc1ccc(NC(=O)CCC(=O)N2CCC(C)CC2)c([N+](=O)[O-])c1`, the figure is over 50 µg/mL; as for `Cn1c(N)c(C(=O)COC(=O)CNC(=O)c2ccc(Cl)cc2Cl)c(=O)n(C)c1=O`, 10.2 µg/mL (≈ 23 µM). To `COC(=O)c1ccc(NC(=S)NN2CCOCC2)cc1` belongs over 44.3 µg/mL; to `Cc1ccc2nc(-c3ccc(O)cc3)oc2c1`, 1.7 µg/mL (≈ 7.55 µM); to `Cc1nn(C)c(Oc2ccccc2)c1CCNC(=O)C(C)(C)C`, over 47.3 µg/mL. As for `O=C(O)C1CCN(C(=O)CSc2nnc(-c3ccccc3)o2)CC1`, the figure is over 52.1 µg/mL; as for `COc1ccc(/C=C/C(=O)OCC(=O)NCCCc2ccccc2)cc1OC`, 20 µg/mL (≈ 52.2 µM). The compound `O=C1NC(=S)NC(=O)C1=Cc1ccc(Br)s1` came in with a kinetic solubility of 44.3 µg/mL (≈ 140 µM). To `Cc1cc(C(=O)COC(=O)c2cnccn2)c(C)n1-c1ccc(Br)cc1` belongs 4.1 µg/mL (≈ 9.9 µM); to `CCN(CC)c1cc(C)c2cc(NC(=O)c3cccs3)ccc2n1`, under 0.2 µg/mL; to `Cc1cc(C)cc(NC(=O)CN2CCC(C(=O)c3ccccc3)CC2)c1`, 16.5 µg/mL (≈ 47.1 µM). To `CC(=O)Nc1ccc(NS(=O)(=O)c2ccc3c(c2)oc(=O)n3C)cc1` belongs over 54.2 µg/mL; to `CSc1nc2ccc(C)cc2c(=O)n1-c1cccnc1`, 8.1 µg/mL (≈ 28.6 µM). Consider `CCCCn1c(O)c(C(=O)/C=C/c2ccc3c(c2)OCO3)c(=O)[nH]c1=O`, for which the solubility (kinetic) is over 53.8 µg/mL. As for `OCC1CCCN(c2ncnc3scc(-c4ccccc4)c23)C1` (configuration not stated), the figure is 47.4 µg/mL (≈ 146 µM).

Compound `Cc1cccc(NC(=S)Nc2cccc3ccccc23)c1` gave a solubility (kinetic) of 3.8 µg/mL (≈ 13 µM). To `C[C@@H](C(=O)Nc1nccs1)N1C(=O)C2CC=CCC2C1=O` (some centres not stated) belongs 42.8 µg/mL (≈ 140 µM); to `Cc1onc(-c2c(F)cccc2Cl)c1C(=O)Nc1cccc(S(=O)(=O)N2CCOCC2)c1`, 37.8 µg/mL (≈ 78.8 µM).

For `CCCCNC(=O)CSc1nc(O)cc(=O)n1C1CCCC1`, the solubility (kinetic) was over 48.8 µg/mL. As for `CCc1ccc(Nc2ncc3c(n2)CC(C)(C)CC3=O)cc1`, the figure is 1.1 µg/mL (≈ 3.72 µM); as for `Cc1ccc(S(=O)(=O)NC(=O)NC(C)c2ccc(F)cc2)cc1` (configuration not stated), over 50.5 µg/mL; as for `CN(C)c1ccc(N2C(=O)CC(c3ccccc3)CC2=O)cc1`, 12.3 µg/mL (≈ 39.9 µM). To `CCC(C)N1CNc2c(c(=O)[nH]c(=S)n2-c2cccc(C)c2)C1` (configuration not stated) belongs over 49.6 µg/mL; to `Cc1cc(Br)ccc1NC(=S)NCCc1ccccc1`, 8.6 µg/mL (≈ 24.6 µM).

Compound `CCOc1ccc(NS(=O)(=O)c2ccc3[nH]c(=O)[nH]c3c2)cc1` showed a kinetic solubility of 2 µg/mL (≈ 6 µM).

`COc1ccc(CN2CCN(C(=O)C3CCN(C(=O)Nc4ccccc4)CC3)CC2)cc1OC` gave a solubility (kinetic) of 60.6 µg/mL (≈ 130 µM).

`O=C(Nc1ccccc1)Oc1cccc(Br)c1` yielded a solubility (kinetic) of 35.9 µg/mL (≈ 123 µM). This solubility kinetic is about 1.7-fold lower than that of the compound before. For the compound `CC(=O)c1ccc(NC(=S)N2CCN(c3ccccn3)CC2)cc1`, the solubility (kinetic) came to 3.1 µg/mL (≈ 9.11 µM). To `CC1(C)CN2C(=O)c3ccccc3C2(C)S1` (configuration not stated) belongs over 35 µg/mL; to `CN(CC(=O)NCc1ccc2c(c1)OCO2)S(=O)(=O)c1ccc(Cl)cc1`, 8.6 µg/mL (≈ 21.7 µM); to `COc1ccc2nc(C(F)(F)Cl)c(C#N)c(N)c2c1`, 3.8 µg/mL (≈ 13.4 µM). The compound `Cn1c(N)c(Br)c(-c2ccc(F)cc2)c(C#N)c1=O` showed a kinetic solubility of 8 µg/mL (≈ 24.8 µM). `O=C(N/N=C/c1ccoc1)c1ccccc1F` returned a solubility (kinetic) of over 34.8 µg/mL.

On to `C/C(Cl)=C/Cn1c(N2CCCC2)nc2c1c(=O)[nH]c(=O)n2C`, for which the solubility (kinetic) came out at 45 µg/mL (≈ 139 µM). For the compound `Cc1ccsc1CNCC(O)c1ccccc1.Cl` (configuration not stated), the kinetic solubility was over 42.6 µg/mL.

Take `Nc1ccc2ccc3cccc[n+]3c2c1.[O-][Cl+3]([O-])([O-])[O-]`: the kinetic solubility is over 44.2 µg/mL. As for `CC(=O)Nc1ccc(NC(=O)c2ccc(Cl)nc2)cc1`, the figure is over 43.5 µg/mL; as for `Cc1ccc(S(=O)(=O)NC(=O)Nc2cccc(C)n2)cc1`, over 45.8 µg/mL.

In the case of `Cc1ccc(NC(=O)c2cnccn2)cc1`, the solubility (kinetic) was over 32 µg/mL.

`CCC(C)c1ccc(NC(=O)NCc2cccnc2)cc1` (configuration not stated) showed a kinetic solubility of 41 µg/mL (≈ 145 µM).

Turning to `CC(C)[C@H](NS(=O)(=O)c1ccccc1)C(=O)OCC(=O)NC1CCCCC1`, the kinetic solubility is over 59.5 µg/mL. As for `OCCCNC(=S)Nc1ccc2nccnc2c1`, the figure is over 39.3 µg/mL.

Turning to `COc1cc([N+](=O)[O-])ccc1NC(=O)N1CCCCCC1`, the solubility (kinetic) is 32.1 µg/mL (≈ 109 µM). For the compound `COc1ccc(NC(=S)NC(=O)/C=C/c2ccc(F)cc2)cc1`, the kinetic solubility is under 0.4 µg/mL. To `O=c1cc(-c2ccccc2)c2cc3c(cc2[nH]1)OCCO3` belongs 1.4 µg/mL (≈ 5.01 µM); to `O=C(Nc1ccc(F)cc1)Oc1ccccc1N1CCOCC1`, 8.1 µg/mL (≈ 25.6 µM). The compound `CC(NC(=O)c1ccccc1F)c1ccccc1` (configuration not stated) returned a solubility (kinetic) of over 36.5 µg/mL.

`O=C(/C=C/c1cccs1)NC(=S)Nc1ccccc1` yielded a solubility (kinetic) of 1.3 µg/mL (≈ 4.51 µM). To `COC(=O)c1cc(C(=O)OCC(=O)Nc2ccc(N3CCOCC3)cc2)cc([N+](=O)[O-])c1` belongs 11.8 µg/mL (≈ 26.6 µM).

The compound `COc1cc(C(=S)N2CCCC2)ccc1OCC(N)=O` showed a kinetic solubility of over 44.2 µg/mL. As for `CC(=O)N1CCN(CC(=O)Nc2cccc(S(=O)(=O)N3CCCCC3)c2)CC1`, the figure is over 61.3 µg/mL; as for `CC(C)CNC(=S)N1CCC(Cc2ccccc2)CC1`, 9.3 µg/mL (≈ 32 µM).

Compound `O=C1/C(=C/c2cccc(O)c2)SC(=S)N1CC1CCCO1` (configuration not stated) yielded a solubility (kinetic) of under 0.7 µg/mL. As for `Cc1ccc2nc(SCC(=O)NCc3ccc(F)cc3)[nH]c2c1`, the figure is 22.4 µg/mL (≈ 68 µM); as for `CN=C1S/C(=C\c2ccc(O)c(Br)c2)C(=O)N1C`, 16.7 µg/mL (≈ 51 µM).

`COc1ccc(CC(=O)Nc2ccccc2N2CCCC2)cc1` gave a kinetic solubility of 41.6 µg/mL (≈ 134 µM). Regarding `CCC(C)NC(=O)c1cc2c(=O)n(CC)c3ccccc3c2s1` (configuration not stated), the solubility (kinetic) was found to be 2.3 µg/mL (≈ 7 µM).

Compound `N#Cc1ncn(-c2ccc(Oc3ccccc3)cc2)c1N` showed a solubility (kinetic) of 4 µg/mL (≈ 14.5 µM). As for `Cc1ccc2nc(C(F)C(F)(F)F)[nH]c2c1` (configuration not stated), the figure is over 34.8 µg/mL. To `Cc1ccc(S(=O)(=O)N2CCN(c3ncccn3)CC2)c(C)c1` belongs 1.8 µg/mL (≈ 5.41 µM); to `O=C(Nc1cc(Cl)ccc1N1CCOCC1)c1ccncc1`, over 47.7 µg/mL; to `Cc1cc(=O)oc2c(C)c(OCC(=O)NCC3CCC(C(=O)O)CC3)ccc12` (configuration not stated), over 58.1 µg/mL.

In turn, `Cc1ccc(NC(=O)CSc2nncs2)cc1Cl` yielded a kinetic solubility of over 45 µg/mL. Turning to `CC12CC3CC(C)(C1)CC(N)(C3)C2.Cl`, the solubility (kinetic) is 29.4 µg/mL. As for `Cc1ccc(-c2c[nH]c(=S)n2-c2ccccc2F)cc1`, the figure is 11.2 µg/mL (≈ 39.4 µM). As for `Cc1ccc(CCC(=O)Nc2ccc(CC(=O)O)cc2)o1`, the figure is over 43.1 µg/mL; as for `Nc1ncnc2nc(SCC(=O)Nc3ccccc3F)[nH]c12`, 29.8 µg/mL (≈ 93.6 µM); as for `Cc1ccc(C23CC4CC(CC(C(=O)NCC(=O)O)(C4)C2)C3)cc1`, over 49.1 µg/mL.

`COc1ccc(S(=O)(=O)N2CCNC(=O)CC2)cc1` displayed a kinetic solubility of 35.1 µg/mL (≈ 123 µM). As for `N#Cc1c(-c2ccccc2)nc(SCc2ccc(Cl)cc2)[nH]c1=O`, the figure is 51.9 µg/mL (≈ 147 µM); as for `COC(=O)c1cc(C(=O)c2cc(Cl)ccc2O)coc1=N`, 41.9 µg/mL (≈ 136 µM); as for `Cc1ccc(NC(=O)CC(=O)Nc2ccc(C)cc2)cc1`, under 0.3 µg/mL. To `COc1ccc(C(=O)OCC(=O)c2c(N)n(C)c(=O)n(C)c2=O)c(OC)c1OC` belongs over 61.1 µg/mL; to `CSC1=C(C#N)C(c2sccc2C)CC(=O)N1` (configuration not stated), over 39.7 µg/mL; to `CC1CCc2c(sc(NC(=O)c3ccco3)c2C(=O)O)C1` (configuration not stated), over 45.8 µg/mL. As for `CCOC(=O)C(NCCOC)(NC(C)=O)C(F)(F)F` (configuration not stated), the figure is over 42.9 µg/mL. As for `CCN1C=C(C(=O)OC)C(c2cccc(OC)c2OC)C(C(=O)OC)=C1`, the solubility (kinetic) was 8.4 µg/mL (≈ 23.2 µM).
